Test results: patent US10610522B2, “Methods for retreating irritable bowel syndrome (IBS)” (Salix Pharmaceuticals, Inc., priority 2014, dated 2020)

Tested on: non-constipation IBS
Assay: Combined first and second studies (TARGET 1 and 2): pooled efficacy, sustained response and recurrence
Assay type: in vivo, human
Set-up: Responders: abdominal pain reduction of 2 point in median / Responders: abdominal pain reduction of 3 point in median / Responders: abdominal pain reduction of 1 point in weekly median / Responders: abdominal pain reduction of 1 point in weekly mean / Responders: abdominal pain reduction of 2 point in mean: concentration or dose not given beside the values
Experimental: A measure of efficacy is based on subjects' answers to the Weekly Subject Global Assessment (SGA) questions over the study duration in relation to their IBS symptoms.
An evaluation of the enrolled subjects was carried out after the Primary Evaluation Period in the study described in Examples 5-7. […] Subjects with no recurrence are defined as having a stool consistency score of less than 4, abdominal pain reduced by at least 30 percent or both.

[1] = Combined, at least 2 weeks during PEP
[2] = Rolling 2-5 Weeks, Rifaximin (N = 624), n (%)
[3] = Rolling 3-6 Weeks, Rifaximin (N = 624), n (%)
[4] = Rolling 4-7 Weeks, Rifaximin (N = 624), n (%)
[5] = Rolling 4 Weeks: 4-7 Weeks, N = 624
[6] = Rolling 4 Weeks: 5-8 Weeks, N = 624
[7] = Rolling 4 Weeks: 6-9 Weeks, N = 624

CO[C@H]1/C=C/O[C@@]2(C)Oc3c(C)c(O)c4c(O)c(c5c(nc6cc(C)ccn65)c4c3C2=O)NC(=O)/C(C)=C\C=C\[C@H](C)[C@H](O)[C@@H](C)[C@@H](O)[C@@H](C)[C@H](OC(C)=O)[C@@H]1C [Rifaximin, (2S,16Z,18E,20S,21S,22R,23R,24R,25S,26S,27S,28E)-5,6,21,23,25 Pentahydroxy-27-methoxy-2,4,11,16,20,22,24,26-octamethyl-2,7-(epoxypentadeca-(1,11,13)trienimino) benzofuro (4,5-e) pyrido(1,2-a) benzimidazole-1,15(2H)-dione,25-acetate]
IBS symptom of bloating: adequate relief at least 2 out of 4 weeks during weeks 3 through 6 (weekly question) (Combined): 40%
Global IBS symptoms: adequate relief at least 2 out of 4 weeks during weeks 3 through 6 (weekly question) (Combined, 550 mg TID 14 d): 32% vs 41%
Responders: abdominal pain reduction of 1 point in weekly mean [1]: 52%
Responders: abdominal pain reduction of 1 point in weekly median [1]: 63%
Responders: abdominal pain reduction of 2 point in mean [1]: 25%
Responders: abdominal pain reduction of 2 point in median [1]: 39%
Responders: abdominal pain reduction of 3 point in mean [1]: 6% vs 7%
Responders: abdominal pain reduction of 3 point in median [1]: 21%
Responders: daily abdominal pain < 2 for at least 50% of days in a week [1]: 39%
Responders: overall reduction of mean weekly abdominal pain by >= 25% [1]: 57%
Responders: overall reduction of mean weekly abdominal pain by >= 50% [1]: 35%
Responders: overall reduction of mean weekly abdominal pain by >= 75% [1]: 14%
Responders: overall reduction of median weekly abdominal pain by >= 25% [1]: 62%
Responders: overall reduction of median weekly abdominal pain by >= 50% [1]: 44%
Responders: overall reduction of median weekly abdominal pain by >= 75% [1]: 21%
Sustained Durable Response (No Recurrence), Abdominal Pain & Stool Consistency: % of subjects (N = 624): (33.2%)
Sustained Durable Response (No Recurrence), Abdominal Pain & Stool Consistency: number of subjects (N = 624): 207
Sustained Durable Response (No Recurrence), Abdominal Pain: % of subjects (N = 624): (35.7%)
Sustained Durable Response (No Recurrence), Abdominal Pain: number of subjects (N = 624): 223
Sustained Durable Response (No Recurrence), Stool Consistency: % of subjects (N = 624): (68.9%)
Sustained Durable Response (No Recurrence), Stool Consistency: number of subjects (N = 624): 430
Abdominal Pain or Stool Consistency, Sustained Durable Response (Rifaximin (N = 624), n (%)): 180 (28.8%)
Abdominal Pain or Stool Consistency, No Recurrence [2]: 286 (45.8%)
Abdominal Pain or Stool Consistency, Recurrence [2]: 12 (1.9%)
Abdominal Pain or Stool Consistency, No Recurrence [3]: 274 (43.9%)
Abdominal Pain or Stool Consistency, Recurrence [3]: 23 (3.7%)
Abdominal Pain or Stool Consistency, No Recurrence [4]: 251 (40.2%)
Abdominal Pain or Stool Consistency, Recurrence [4]: 17 (2.7%)
No Recurrence, Abdominal Pain & Stool Consistency: % of subjects [5]: (48.2%)
No Recurrence, Abdominal Pain & Stool Consistency: number of subjects [5]: 301
No Recurrence, Abdominal Pain: % of subjects [5]: (51.9%)
No Recurrence, Abdominal Pain: number of subjects [5]: 324
No Recurrence, Stool Consistency: % of subjects [5]: (78.8%)
No Recurrence, Stool Consistency: number of subjects [5]: 492
Recurrence, Abdominal Pain & Stool Consistency: % of subjects [5]: 3.7%
Recurrence, Abdominal Pain & Stool Consistency: number of subjects [5]: 23
Recurrence, Abdominal Pain: % of subjects [5]: 3.8%
Recurrence, Abdominal Pain: number of subjects [5]: 24
Recurrence, Stool Consistency: % of subjects [5]: 1.3%
Recurrence, Stool Consistency: number of subjects [5]: 8
No Recurrence, Abdominal Pain & Stool Consistency: % of subjects [6]: (44.6%)
No Recurrence, Abdominal Pain & Stool Consistency: number of subjects [6]: 278
No Recurrence, Abdominal Pain: % of subjects [6]: (48.1%)
No Recurrence, Abdominal Pain: number of subjects [6]: 300
No Recurrence, Stool Consistency: % of subjects [6]: (77.6%)
No Recurrence, Stool Consistency: number of subjects [6]: 484
Recurrence, Abdominal Pain & Stool Consistency: % of subjects [6]: 3.2%
Recurrence, Abdominal Pain & Stool Consistency: number of subjects [6]: 20
Recurrence, Abdominal Pain: % of subjects [6]: 3.0%
Recurrence, Abdominal Pain: number of subjects [6]: 19
Recurrence, Stool Consistency: % of subjects [6]: 2.1%
Recurrence, Stool Consistency: number of subjects [6]: 13
No Recurrence, Abdominal Pain & Stool Consistency: % of subjects [7]: (41.3%)
No Recurrence, Abdominal Pain & Stool Consistency: number of subjects [7]: 258
No Recurrence, Abdominal Pain: % of subjects [7]: (45.0%)
No Recurrence, Abdominal Pain: number of subjects [7]: 281
No Recurrence, Stool Consistency: % of subjects [7]: (75.5%)
No Recurrence, Stool Consistency: number of subjects [7]: 471
Recurrence, Abdominal Pain & Stool Consistency: % of subjects [7]: 2.2%
Recurrence, Abdominal Pain & Stool Consistency: number of subjects [7]: 14
Recurrence, Abdominal Pain: % of subjects [7]: 2.4%
Recurrence, Abdominal Pain: number of subjects [7]: 15
